Values quoted from earlier work in US7541371B2, “Method for treating a motor neuron disease” (Eisai R&D Management Co., Ltd., priority 2006, dated 2009).
pKi: −log10 of the molar value.

Molecular target: T1, serotonin 1A receptor (Rattus norvegicus, UniProt P19327)
T1 construct: mixed with the receptor fraction of the hippocampus; from tissue; host or cells: rat hippocampus
T1 sequence (P19327 1-422): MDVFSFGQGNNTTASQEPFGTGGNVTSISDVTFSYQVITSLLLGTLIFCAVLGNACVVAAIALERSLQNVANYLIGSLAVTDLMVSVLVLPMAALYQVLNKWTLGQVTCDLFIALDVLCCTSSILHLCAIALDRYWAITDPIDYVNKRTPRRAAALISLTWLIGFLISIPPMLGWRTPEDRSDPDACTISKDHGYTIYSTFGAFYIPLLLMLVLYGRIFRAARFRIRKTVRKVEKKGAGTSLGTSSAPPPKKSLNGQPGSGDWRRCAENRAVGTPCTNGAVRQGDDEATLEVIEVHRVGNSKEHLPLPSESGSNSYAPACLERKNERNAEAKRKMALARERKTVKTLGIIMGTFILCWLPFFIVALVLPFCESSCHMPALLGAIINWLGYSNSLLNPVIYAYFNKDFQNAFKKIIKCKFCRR
Settings: rat hippocampus receptor fraction, 0.5 nM [3H]8-hydroxy-dipropylaminotetralin; compounds 7 and 8, WO 99/18077; read-out: 5HT1a; cited from earlier work

For `CCN1CCN(c2nc(-c3ccc(OCC(C)(C)O)cc3)cc3sccc23)CC1` [Compound 8, 1-{4-[4-(4-ethylpiperazin-1-yl)thieno[3,2-c]pyridin-6-yl]phenoxy}-2-methylpropan-2-ol], the pKi is given as 7.26.
